Calls of active or inactive are those of the source. The rule behind the calls is not given here.
Experiments:
[1] = test system: Panel NCI-60 (60 carcinoma cell lines); assay: Cytotoxicity against human NCI60 cells by SRB assay; format: functional, cell-based
BT-474 [2] = assay: Inhibition of colony formation in human BT-474 cells by clonogenic assay; format: functional, cell-based
BT-474 [3] = assay: Induction of mitochondrial membrane potential loss in human BT-474 cells assessed as depolarised cells at 1 uM incubated for 24 hrs by […] staining based assay (reference value: 4.18%); format: functional
NCI-H460 [4] = assay: Growth of human NCI-H460 cells relative to control
BT-474 [5] = assay: Induction of apoptosis in human BT-474 cells assessed as fragmented nucleus by measuring bright clue colour at 0.25 to 1 uM incubated for 24 hrs by DAPI staining based fluorescence microscope assay; format: functional, cell-based; settings: dose 0.25-1 µM
BT-474 [6] = assay: Induction of ROS production in human BT-474 cells assessed as increase in intracellular ROS level incubated for 24 hrs by DCF-DA staining based assay; format: functional, cell-based; settings: dose 0.25-1 µM
BT-474 [7] = assay: Induction of apoptosis in human BT-474 cells assessed as early apoptotic cells at 1 uM incubated for 24 hrs by annexin-V/FITC-PI staining assay (reference value: 9.44%); format: functional
HCT-116 [8] = assay: Growth of human HCT-116 cells relative to control
BT-474 [9] = assay: Induction of apoptosis in human BT-474 cells assessed as necrotic cells at 0.5 uM incubated for 24 hrs by annexin-V/FITC-PI staining assay (reference value: 0.24%); format: functional
BT-474 [10] = assay: Induction of apoptosis in human BT-474 cells assessed as nuclear shrinkage by measuring bright clue colour at 0.25 to 1 uM incubated for 24 hrs by DAPI staining based fluorescence microscope assay; format: functional, cell-based; settings: dose 0.25-1 µM
SNB-75 [11] = assay: Growth of human SNB75 cells relative to control
BT-474 [12] = assay: Induction of mitochondrial membrane potential loss in human BT-474 cells assessed as polarised cells at 0.25 uM incubated for 24 hrs by […] staining based assay (reference value: 93.95%); format: functional
KM12 [13] = assay: Growth of human KM12 cells relative to control
SR [14] = assay: Growth inhibition of human SR cells; format: functional
MDA-MB-435 [15] = assay: Growth inhibition of human MDA-MB-435 cells; format: functional
MCF7 [16] = assay: Growth of human MCF7 cells relative to control
K562 [17] = assay: Growth inhibition of human K562 cells; format: functional
BT-474 [18] = assay: Induction of apoptosis in human BT-474 cells assessed as early apoptotic cells at 0.5 uM incubated for 24 hrs by annexin-V/FITC-PI staining assay (reference value: 9.44%); format: functional
HT-29 [19] = assay: Growth inhibition of human HT-29 cells; format: functional
BT-474 [20] = assay: Induction of mitochondrial membrane potential loss in human BT-474 cells assessed as polarised cells at 1 uM incubated for 24 hrs by […] staining based assay (reference value: 93.95%); format: functional
SR [21] = assay: Growth of human SR cells relative to control
NCI-H460 [22] = assay: Growth inhibition of human NCI-H460 cells; format: functional
LOX IMVI [23] = assay: Growth of human LOX IMVI cells relative to control
BT-474 [24] = assay: Induction of mitochondrial membrane potential loss in human BT-474 cells assessed as depolarised cells at 0.25 uM incubated for 24 hrs by […] staining based assay (reference value: 4.18%); format: functional
KM12 [25] = assay: Growth inhibition of human KM12 cells; format: functional
BT-474 [26] = assay: Induction of apoptosis in human BT-474 cells assessed as late apoptotic cells at 1 uM incubated for 24 hrs by annexin-V/FITC-PI staining assay (reference value: 1.83%); format: functional
BT-474 [27] = assay: Induction of mitochondrial membrane potential loss in human BT-474 cells assessed as polarised cells at 0.5 uM incubated for 24 hrs by […] staining based assay (reference value: 93.95%); format: functional
LOX IMVI [28] = assay: Growth inhibition of human LOX IMVI cells; format: functional
BT-474 [29] = assay: Induction of apoptosis in human BT-474 cells assessed as late apoptotic cells at 0.5 uM incubated for 24 hrs by annexin-V/FITC-PI staining assay (reference value: 1.83%); format: functional
RPMI-8226 [30] = assay: Growth of human RPMI-8226 cells relative to control
BT-474 [31] = assay: Induction of apoptosis in human BT-474 cells assessed as pyknotic and chromatin condensation by measuring bright clue colour at 0.25 to 1 uM incubated for 24 hrs by DAPI staining based fluorescence microscope assay; format: functional, cell-based; settings: dose 0.25-1 µM
BT-474 [32] = assay: Induction of mitochondrial membrane potential loss in human BT-474 cells assessed as depolarised cells at 0.5 uM incubated for 24 hrs by […] staining based assay (reference value: 4.18%); format: functional
BT-474 [33] = assay: Induction of apoptosis in human BT-474 cells assessed as reduced number of viable cells at 0.25 to 1 uM by phase-contrast microscopy; format: functional, cell-based; settings: dose 0.25-1 µM
BT-474 [34] = assay: Induction of apoptosis in human BT-474 cells assessed as viable cells at 0.5 uM incubated for 24 hrs by annexin-V/FITC-PI staining assay (reference value: 88.49%); format: functional; settings: read-out: Activity
RPMI-8226 [35] = assay: Growth inhibition of human RPMI-8226 cells; format: functional
BT-474 [36] = assay: Induction of apoptosis in human BT-474 cells assessed as horseshoe-shaped nuclei by measuring bright clue colour at 0.25 to 1 uM incubated for 24 hrs by DAPI staining based fluorescence microscope assay; format: functional, cell-based; settings: dose 0.25-1 µM
BT-474 [37] = assay: Cytotoxicity against human BT-474 cells assessed as cell growth inhibition by MTT assay; format: functional, cell-based
BT-474 [38] = assay: Induction of apoptosis in human BT-474 cells assessed as necrotic cells at 1 uM incubated for 24 hrs by annexin-V/FITC-PI staining assay (reference value: 0.24%); format: functional
MDA-MB-435 [39] = assay: Growth of human MDA-MB-435 cells relative to control
BT-474 [40] = assay: Induction of apoptosis in human BT-474 cells assessed as […] at 0.25 to 1 uM by phase-contrast microscopy; format: functional, cell-based; settings: dose 0.25-1 µM
BT-474 [41] = assay: Induction of apoptosis in human BT-474 cells assessed as cellular morphological changes at 0.25 to 1 uM incubated for 24 hrs by AO/EB staining assay; format: functional, cell-based; settings: dose 0.25-1 µM
BT-474 [42] = assay: Induction of apoptosis in human BT-474 cells assessed as viable cells at 1 uM incubated for 24 hrs by annexin-V/FITC-PI staining assay (reference value: 88.49%); format: functional; settings: read-out: Activity
SNB-75 [43] = assay: Growth inhibition of human SNB75 cells; format: functional
BT-474 [44] = assay: Induction of apoptosis in human BT-474 cells assessed as cell shrinkage at 0.25 to 1 uM by phase-contrast microscopy; format: functional, cell-based; settings: dose 0.25-1 µM
HT-29 [45] = assay: Growth of human HT-29 cells relative to control
MCF7 [46] = assay: Growth inhibition of human MCF7 cells; format: functional
K562 [47] = assay: Growth of human K562 cells relative to control
HCT-116 [48] = assay: Growth inhibition of human HCT-116 cells; format: functional
[49] = read-out: LC50 (the source's name)

Cc1cc(C)cc(Oc2ccc(Nc3ncnc4onc(-c5ccccc5)c34)cc2)c1
Activity [1]: Active

COc1ccc(COc2ccc(Nc3ncnc4onc(-c5ccccc5)c34)cc2)cc1
Activity [1]: Active

Clc1ccc(COc2ccc(Nc3ncnc4onc(-c5ccccc5)c34)cc2)cc1
Activity [1]: Active

Fc1ccc(COc2ccc(Nc3ncnc4onc(-c5ccccc5)c34)cc2)cc1
Activity [1]: Active

c1ccc(-c2noc3ncnc(Nc4ccc(Oc5cccc6ccccc56)cc4)c23)cc1
Activity [1]: Active

Clc1ccc(COc2ccc(Nc3ncnc4onc(-c5ccccc5)c34)cc2)c(Cl)c1
Activity [1]: Active

Fc1ccccc1Nc1ncnc2onc(-c3ccccc3)c12
Activity [1]: Active

CCOC(=O)c1ccc(Oc2ccc(Nc3ncnc4onc(-c5ccccc5)c34)cc2)cc1
Activity [1]: Active

c1ccc(COc2ccc(Nc3ncnc4onc(-c5ccccc5)c34)cc2)cc1
Activity [1]: Active

O=c1cc(Cc2ccc(Oc3ccc(Nc4ncnc5onc(-c6ccccc6)c45)cc3)cc2)c2ccccc2o1
Activity [1]: Active

COc1cccc(COc2ccc(Nc3ncnc4onc(-c5ccccc5)c34)cc2)c1
Activity [1]: Active

c1ccc(-c2noc3ncnc(Nc4ccc(Oc5ccccc5-c5ccnc6ccccc56)cc4)c23)cc1
Activity [1]: Active

O=C(O)CNc1ncnc2onc(-c3ccccc3)c12
Activity [1]: Active

c1ccc(Nc2ncnc3onc(-c4ccccc4)c23)cc1
Activity [1]: Active

Brc1ccc(Oc2ccc(Nc3ncnc4onc(-c5ccccc5)c34)cc2)cc1
Activity [1]: Active

FC(F)(F)Oc1ccc(Oc2ccc(Nc3ncnc4onc(-c5ccccc5)c34)cc2)cc1
Activity [1]: Active

c1ccc(Oc2ccc(Nc3ncnc4onc(-c5ccccc5)c34)cc2)cc1
Activity [1]: Active

Clc1cccc(COc2ccc(Nc3ncnc4onc(-c5ccccc5)c34)cc2)c1
Activity [1]: Active

c1ccc(-c2noc3ncnc(Nc4ccc(Oc5ccc6ccccc6c5)cc4)c23)cc1
Activity [1]: Active

Clc1ccc(Oc2ccc(Nc3ncnc4onc(-c5ccccc5)c34)cc2)c(Cl)c1
Activity [1]: Active

Cc1ccc(COc2ccc(Nc3ncnc4onc(-c5ccccc5)c34)cc2)cc1
Activity [1]: Active

Clc1cccc(Nc2ncnc3onc(-c4ccccc4)c23)c1
Activity [1]: Active

Clc1ccccc1Oc1ccc(Nc2ncnc3onc(-c4ccccc4)c23)cc1
Activity [1]: Active

Fc1ccc(Oc2ccc(Nc3ncnc4onc(-c5ccccc5)c34)cc2)cc1
Activity [1]: Active

COc1ccc(Nc2ncnc3onc(-c4ccccc4)c23)cc1
Activity [1]: Active

c1ccc(-c2noc3ncnc(Nc4ccc(N5CCOCC5)cc4)c23)cc1
Activity [1]: Active

Brc1ccc(COc2ccc(Nc3ncnc4onc(-c5ccccc5)c34)cc2)cc1
Activity [1]: Active

Fc1cccc(COc2ccc(Nc3ncnc4onc(-c5ccccc5)c34)cc2)c1
Activity (BT-474 [2]): Dose-Dependent Effect
Activity (BT-474 [3]): 18.83%
growth, % of control (NCI-H460 [4]): 2.61%
Activity (BT-474 [5]): Active
Activity (BT-474 [6]): Dose-Dependent Effect
Activity (BT-474 [7]): 27.93%
growth, % of control (HCT-116 [8]): 8.15%
Activity (BT-474 [9]): 1.06%
Activity (BT-474 [10]): Active
growth, % of control (SNB-75 [11]): -34.93%
Activity (BT-474 [12]): 92.79%
Activity [1]: Active
growth, % of control (KM12 [13]): 9.57%
GI50 (SR [14]): 67 nM
TGI (SR [14]): > 100 µM
CC50 (SR [14]; [49]): > 100 µM
GI50 (MDA-MB-435 [15]): 32 nM
growth, % of control (MCF7 [16]): 14.05%
GI50 (K562 [17]): 95 nM
TGI (K562 [17]): > 100 µM
CC50 (K562 [17]; [49]): > 100 µM
Activity (BT-474 [18]): 27.1%
GI50 (HT-29 [19]): 53 nM
TGI (HT-29 [19]): 11.6 µM
CC50 (HT-29 [19]; [49]): > 100 µM
Activity (BT-474 [20]): 75.08%
growth, % of control (SR [21]): 26.06%
GI50 (NCI-H460 [22]): 50 nM
TGI (NCI-H460 [22]): 28.4 µM
CC50 (NCI-H460 [22]; [49]): > 100 µM
growth, % of control (LOX IMVI [23]): 23.07%
Activity (BT-474 [24]): 5.5%
GI50 (KM12 [25]): 80 nM
TGI (KM12 [25]): 14.8 µM
CC50 (KM12 [25]; [49]): > 100 µM
Activity (BT-474 [26]): 7.19%
Activity (BT-474 [27]): 78.84%
GI50 (LOX IMVI [28]): 949 nM
TGI (LOX IMVI [28]): > 100 µM
CC50 (LOX IMVI [28]; [49]): > 100 µM
Activity (BT-474 [29]): 6.9%
growth, % of control (RPMI-8226 [30]): 12.49%
Activity (BT-474 [31]): Active
Activity (BT-474 [32]): 16.12%
Activity (BT-474 [33]): Active
viability at 0.5 µM (BT-474 [34]): 64.9%
GI50 (RPMI-8226 [35]): 58 nM
TGI (RPMI-8226 [35]): > 100 µM
CC50 (RPMI-8226 [35]; [49]): > 100 µM
Activity (BT-474 [36]): Active
IC50 (BT-474 [37]): 640 nM
Activity (BT-474 [38]): 1.55%
growth, % of control (MDA-MB-435 [39]): -54.67%
Activity (BT-474 [40]): Active
Activity (BT-474 [41]): Active
viability at 1 µM (BT-474 [42]): 63.3%
GI50 (SNB-75 [43]): 26 nM
TGI (SNB-75 [43]): 386 nM
CC50 (SNB-75 [43]; [49]): > 100 µM
Activity (BT-474 [44]): Active
growth, % of control (HT-29 [45]): 3.86%
GI50 (MCF7 [46]): 37 nM
TGI (MCF7 [46]): > 100 µM
CC50 (MCF7 [46]; [49]): > 100 µM
growth, % of control (K562 [47]): 12.08%
GI50 (HCT-116 [48]): 58 nM
TGI (HCT-116 [48]): > 100 µM
CC50 (HCT-116 [48]; [49]): > 100 µM
